{"source": "patent US20090041820A1", "about": "“Functional polymer compositions” (priority 2007, published 2009)", "key": {"[1]": {"assay": "PAO/ester/triclosan migration from PP strips (weight loss, toluene wash, surface observation)", "assay_type": "physicochemical", "conditions": "fast cooled PP strips", "protocol": "Preparation of sample 24892-114-0 to 7: The polypropylene described above (85% by weight) was melt blended in a mixer with 15 wt % triclosan stock solution as prepared in Table 2. The mixed polymer was then compression molded into 4″×4″ squares with less than 1 mm thickness. Two methods were used to prepare the PP strip with very different results. One method includes fast cooling after the compression molding (quench sample with a 7° C. cooling surface). The sample strip had PAO fluid on surface indicating fast PAO migration after a few hours at room temperature. The other method included slow cooling after the compression molding (cool sample in ambient air, 23° C.). Sample strip appeared very dry with no apparent PAO fluid on surface. When this sample was put into 70° C. oven, slight oiliness was observed on the surface.\nTable 4 below depicts the PAO/ester/Triclosan migration from the PP strips as measured by weight loss in 7 days.\nFor fast cooled PP strips, there was up to 1.8 wt % weight loss by toluene wash due to PAO/ester/Triclosan migration to the surface."}, "[2]": {"assay": "Solubility of triclosan in PAO carrier fluid", "assay_type": "physicochemical", "conditions": "PAO without ester"}}, "data": [{"smiles": "Oc1cc(Cl)ccc1Oc1ccc(Cl)cc1Cl", "note": "[Triclosan]", "values": [{"measurement": "migration to the surface, confirmed by GC analysis of the toluene wash", "setting": "[1]", "result": "migrated to the surface"}, {"measurement": "solubility in PAO alone", "setting": "[2]", "result": "low solubility"}]}]}
